The species entered for assay [1] is Rattus norvegicus. Put plainly: Selectivity index, ratio of Ki for adenosine receptor A2a in rat striatal membrane to Ki for adenosine receptor A1 in rat brain membrane. In kind it is cell membranes.
The species named for assay [2] is Rattus norvegicus. Nature of the assay: Selectivity index, ratio of Ki for adenosine receptor A1 in rat brain membrane to Ki for adenosine receptor A2a in rat striatal membrane. In kind it is cell membranes.
For assay [3], the target named is T1, Adenosine receptor A1 (Rattus norvegicus, UniProt P25099).
T1 sequence (P25099 whole entry): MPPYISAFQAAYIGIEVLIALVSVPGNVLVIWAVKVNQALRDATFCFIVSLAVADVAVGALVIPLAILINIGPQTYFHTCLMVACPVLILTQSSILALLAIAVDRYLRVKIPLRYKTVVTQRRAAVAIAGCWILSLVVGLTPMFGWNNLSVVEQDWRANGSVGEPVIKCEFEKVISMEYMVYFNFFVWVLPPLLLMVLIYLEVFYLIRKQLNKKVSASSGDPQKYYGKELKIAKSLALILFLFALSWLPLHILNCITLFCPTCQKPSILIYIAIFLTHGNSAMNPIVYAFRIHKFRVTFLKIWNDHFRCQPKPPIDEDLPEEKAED
Nature of the assay: Displacement of [3H]DPCPX from adenosine receptor A1 in rat brain membrane. The class given is cell membranes.

The target of another assay is Adenosine receptor A2a (Rattus norvegicus, UniProt P30543). Nature of the assay: Displacement of [3H]NECA from adenosine receptor A2a in rat striatial membrane. The class given is cell membranes. A general note: In a radioligand displacement assay an active substance lowers the binding of a labelled ligand.
The nature of assay [4]: Antagonist activity at adenosine receptor A2a in [3H]adenine-labeled guinea pig cerebral cortical slices assessed as inhibition of 2-chloroadenosine-stimulated [3H]-cAMP accumulation. Set-up: species or system Cavia porcellus.
For assay [5], the target named is T2, Adenosine receptor A1 (Rattus norvegicus) (UniProt P25099).
T2 sequence (whole entry): T1 sequence (P25099 whole entry)
Nature of the assay: Ratio of Ki for adenosine receptor A1 in rat brain membrane in presence of GTP to Ki for adenosine receptor A1 in rat brain membrane in absence of GTP. In kind it is cell membranes.

Assay [6] concerns the target T1, Adenosine receptor A1. Put plainly: Displacement of [3H]DPCPX from adenosine receptor A1 in rat brain membrane in presence of GTP by GTP shift assay. The class given is cell membranes.

Chain of Adenosine receptor A2a (P30543 whole entry): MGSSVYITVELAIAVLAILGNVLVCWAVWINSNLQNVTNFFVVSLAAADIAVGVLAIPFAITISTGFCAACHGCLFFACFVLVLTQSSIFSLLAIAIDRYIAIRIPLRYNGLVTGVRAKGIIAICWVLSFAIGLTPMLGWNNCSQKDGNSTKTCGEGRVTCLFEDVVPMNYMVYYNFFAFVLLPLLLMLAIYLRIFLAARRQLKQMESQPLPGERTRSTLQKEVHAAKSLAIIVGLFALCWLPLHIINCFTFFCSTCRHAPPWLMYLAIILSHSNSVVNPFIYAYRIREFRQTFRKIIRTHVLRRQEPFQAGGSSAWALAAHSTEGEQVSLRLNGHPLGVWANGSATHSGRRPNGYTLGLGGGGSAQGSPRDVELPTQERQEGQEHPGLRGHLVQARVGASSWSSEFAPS

For orientation: Ki means a measure of affinity in units of concentration, obtained from inhibition or displacement. On to `Cn1c(=O)c2c(nc(SCc3ccc(Cl)cc3)n2C)n(C)c1=O`, for which the values for the Ratio Ki in the assay filed under Rattus norvegicus [1] and in the assay listed under Rattus norvegicus [2] were 0.6 and 1.8, respectively. Also, the results for the Ki at Adenosine receptor A1 [3] and at Adenosine receptor A2a were 90 µM and 51.4 µM, respectively.
The corresponding values for `Cn1c(=O)c2c(nc(SCc3ccccc3)n2C)n(C)c1=O` are 1.1, 0.9, 4.32 µM and 4.64 µM.
The matching figures for `Cn1c(=O)c2c(nc(CSc3ccc(Cl)cc3)n2C)n(C)c1=O`: 0.1, 13.9, 20.8 µM and 1.5 µM.
The matching figures for `Cn1c(=O)c2c(nc(OCc3ccc(Cl)cc3)n2C)n(C)c1=O`: 0.2, 5.3, 17.4 µM and 3.31 µM.
In the case of `Cn1c(=O)c2c(ncn2C)n(C)c1=O` [CAFFEINE], in assay [4], the Ki was 50 µM.
For the compound `Cn1c(=O)c2c(nc(COc3ccccc3)n2C)n(C)c1=O`, the Ratio Ki in the assay listed under Rattus norvegicus [1] stood at 0.8; in the assay filed under Rattus norvegicus [2], 1.3; in assay [5], 1.3. The Ki on Adenosine receptor A1 [6] was found to be 4.01 µM.
For `Cn1c(=O)c2c(nc(NCc3ccccc3)n2C)n(C)c1=O`, the Ratio Ki in the assay filed under Rattus norvegicus [1] came to 0.6; in the assay listed under Rattus norvegicus [2], 1.8. Besides, the results for the Ki on Adenosine receptor A1 [3] and at Adenosine receptor A2a were 7.95 µM and 4.5 µM, respectively.
On to `Cn1c(=O)c2c(nc(CSc3ccccc3)n2C)n(C)c1=O`, for which the Ratio Ki in the assay filed under Rattus norvegicus [1] amounted to 0.8; in the assay listed under Rattus norvegicus [2], 1.5. The Ki came to 4.85 µM on Adenosine receptor A1 [3] and 3.33 µM at Adenosine receptor A2a.
As for `Cn1c(=O)c2c(nc(COc3ccc(Cl)cc3)n2C)n(C)c1=O`, the results for the Ratio Ki in the assay filed under Rattus norvegicus [1] and in the assay filed under Rattus norvegicus [2] were 0.2 and 5.7, respectively. Also, the Ki on Adenosine receptor A1 [3] amounted to 7.6 µM; on Adenosine receptor A2a, 1.33 µM.
`Cn1c(=O)c2c(nc(CCc3ccccc3)n2C)n(C)c1=O`: the Ratio Ki in the assay listed under Rattus norvegicus [1] stood at 0.9; in the assay listed under Rattus norvegicus [2], 1.2.
Consider `Cn1c(=O)c2c(nc(OCc3ccccc3)n2C)n(C)c1=O`, for which the values for the Ratio Ki (in the assay listed under Rattus norvegicus [1]; in the assay listed under Rattus norvegicus [2]; in assay [5]) were 2.8, 0.4 and 1.2, respectively. Also, the results for the Ki on Adenosine receptor A1 [3], at Adenosine receptor A2a and at Adenosine receptor A1 [6] were 1.52 µM, 4.3 µM and 1.93 µM, respectively.

Values taken from ChEMBL document CHEMBL4041492 (Eur J Med Chem, 2017).
